Experimental data published in patent US20250206721A1, “Prostaglandin Receptor EP2 Antagonists, Derivatives, and Uses Related Thereto” (Emory University, priority 2019, published 2025).
Converted amounts (≈) assume the structure as drawn. Where a name gives a salt, the structure may show the parent alone. Marks after values point to notes of the source that are not given here.

How the values were obtained:
[1] = pH 2
[2] = Kinetic aqueous solubility in PBS by nephelometry; conditions: PBS buffer (pH 7.4) with 1% DMSO, nephelometry
[3] = in vivo; conditions: C57BL/6, mouse, ip, 10 mg/kg
[4] = molecular target: T1, human EP2 receptor (Homo sapiens, UniProt P43116); experiment: Cell-based cAMP TR-FRET assay, Schild KB on EP2; conditions: for Kb: Schild KB, agonist PGE2, antagonist concentration 1 μM, C6G cells expressing human EP2; for fold less potent than equivalent derivative: 11a vs 8b, 11b vs 8g, 11c vs 8f
T1 construct: expressed in transfected cells
T1 sequence (P43116 whole entry): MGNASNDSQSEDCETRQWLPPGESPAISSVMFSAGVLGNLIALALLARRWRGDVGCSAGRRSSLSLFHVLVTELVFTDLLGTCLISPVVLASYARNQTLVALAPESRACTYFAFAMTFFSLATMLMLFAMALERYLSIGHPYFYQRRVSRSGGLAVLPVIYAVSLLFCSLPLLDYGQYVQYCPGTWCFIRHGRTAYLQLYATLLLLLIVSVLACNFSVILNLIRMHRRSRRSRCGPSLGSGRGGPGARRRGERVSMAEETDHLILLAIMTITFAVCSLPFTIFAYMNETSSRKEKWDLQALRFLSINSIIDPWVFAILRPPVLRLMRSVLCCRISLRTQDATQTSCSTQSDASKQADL

[5] = physchem; conditions: pH 2, simulated gastric fluid, kinetic from dmso stock
[6] = molecular target: human IP receptor (Homo sapiens, UniProt P43119); experiment: Cell-based cAMP TR-FRET assay on IP (agonist iloprost); conditions: selectivity index IP KB/EP2 KB, fold
Sequence of human IP receptor (P43119 whole entry): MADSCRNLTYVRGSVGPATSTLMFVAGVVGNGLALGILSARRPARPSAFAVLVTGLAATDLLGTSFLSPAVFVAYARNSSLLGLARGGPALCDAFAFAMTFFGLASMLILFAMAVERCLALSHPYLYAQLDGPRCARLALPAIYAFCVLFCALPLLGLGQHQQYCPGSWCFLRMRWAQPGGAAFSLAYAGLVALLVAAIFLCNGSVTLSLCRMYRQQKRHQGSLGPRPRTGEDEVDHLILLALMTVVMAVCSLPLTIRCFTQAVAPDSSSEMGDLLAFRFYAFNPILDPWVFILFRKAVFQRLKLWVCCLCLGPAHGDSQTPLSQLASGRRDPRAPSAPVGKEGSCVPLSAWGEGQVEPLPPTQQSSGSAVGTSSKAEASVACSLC

[7] = molecular target: human EP4 receptor (Homo sapiens, UniProt P35408); experiment: Cell-based cAMP TR-FRET assay on EP4 (agonist PGE2); conditions: selectivity index EP4 KB/EP2 KB, fold
Sequence of human EP4 receptor (P35408 whole entry): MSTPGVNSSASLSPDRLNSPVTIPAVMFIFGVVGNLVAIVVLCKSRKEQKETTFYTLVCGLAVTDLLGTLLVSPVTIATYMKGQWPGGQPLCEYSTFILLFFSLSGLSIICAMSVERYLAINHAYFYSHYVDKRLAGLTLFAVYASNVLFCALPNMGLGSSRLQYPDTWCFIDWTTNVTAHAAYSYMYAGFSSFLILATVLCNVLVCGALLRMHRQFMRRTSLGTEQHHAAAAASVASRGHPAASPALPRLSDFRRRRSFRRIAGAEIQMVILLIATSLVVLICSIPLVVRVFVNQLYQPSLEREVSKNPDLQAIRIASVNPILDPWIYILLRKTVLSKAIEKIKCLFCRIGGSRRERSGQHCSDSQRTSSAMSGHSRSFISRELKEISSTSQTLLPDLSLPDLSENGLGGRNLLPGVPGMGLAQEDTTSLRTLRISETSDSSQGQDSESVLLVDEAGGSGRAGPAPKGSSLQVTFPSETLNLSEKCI

[8] = molecular target: T2, human DP1 receptor (Homo sapiens, UniProt Q13258); conditions: selectivity index DP1 KB/EP2 KB, fold
T2 sequence (Q13258 1-359): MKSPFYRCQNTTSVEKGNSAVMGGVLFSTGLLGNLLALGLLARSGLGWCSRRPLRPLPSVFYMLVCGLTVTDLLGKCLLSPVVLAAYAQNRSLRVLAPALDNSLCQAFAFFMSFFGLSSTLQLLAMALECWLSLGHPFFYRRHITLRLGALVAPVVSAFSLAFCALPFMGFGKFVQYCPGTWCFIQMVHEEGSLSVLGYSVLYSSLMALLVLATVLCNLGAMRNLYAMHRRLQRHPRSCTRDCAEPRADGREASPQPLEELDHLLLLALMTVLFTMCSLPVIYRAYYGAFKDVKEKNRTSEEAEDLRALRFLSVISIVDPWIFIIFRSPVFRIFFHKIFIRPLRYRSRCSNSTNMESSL

[9] = Mouse liver microsomal (MLM) stability
[10] = Thermodynamic shake flask solubility in neat water

SMILES | Solubility in SGF [1] | Aqueous Solubility [2] [µM] | S.I (IP/EP2) [6] | other results
COc1cccc(-c2ccc(C(=O)NCCc3c(C)[nH]c4ccccc34)cn2)c1 [Compound 8b, 6-(3-Methoxyphenyl)-N-(2-(2-methyl-1H-indol-3-yl)ethyl)nicotinamide] | >100 µM | 13 | – | –
COc1ccccc1-c1ccc(C(=O)NCCc2c(C)[nH]c3ccccc23)cn1 [Compound 8c, 6-(2-Methoxyphenyl)-N-(2-(2-methyl-1H-indol-3-yl)ethyl)nicotinamide] | >100 µM | 28 | – | half-life [3]: < 1 h
Cc1[nH]c2ccccc2c1CCNC(=O)c1ccc(-c2ccccc2F)nc1 [Compound 8e, 6-(2-Fluorophenyl)-N-(2-(2-methyl-1H-indol-3-yl)ethyl)nicotinamide] | >100 µM | 22 | – | fold less EP2 potency in comparison to 2a ([4]; comparator 2a): 2 fold; fold less EP2 potency in comparison to 8c ([4]; comparator 8c (14b vs. 14c or 8c)): 4 fold
Cc1[nH]c2ccccc2c1CCNC(=O)c1ccc(-c2ccccc2O)nc1 [Compound 8d, 6-(2-Hydroxyphenyl)-N-(2-(2-methyl-1H-indol-3-yl)ethyl)nicotinamide] | 50^c μM | 8 | – | –
Cc1[nH]c2ccccc2c1CCNC(=O)c1ccc(-c2ccccc2)nc1 [Compound 8a, N-(2-(2-Methyl-1H-indol-3-yl)ethyl)-6-phenylnicotinamide] | >100 µM | 25 | – | –
COc1cc(OC)cc(-c2ccc(C(=O)NCCc3c(C)[nH]c4ccccc34)cn2)c1 [Compound 8g, 6-(3,5-Dimethoxyphenyl)-N-(2-(2-methyl-1H-indol-3-yl)ethyl)nicotinamide] | >100 µM | 12 | – | half-life [3]: < 1 h
Cc1[nH]c2ccccc2c1CCNC(=O)c1ccc(-c2cnc[nH]2)cc1 [TG8-260, 4-(1H-imidazol-5-yl)-N-(2-(2-methyl-1H-indol-3-yl)ethyl)benzamide] | – | – | at least 300 | inhibition of PGE2-induced human EP2 receptor activation ([4]; concentration-response, in words): inhibits PGE2-induced human EP2 receptor activation in a concentration dependent manner; S.I (EP4/EP2) [7]: at least 300; S.I. (DP1/EP2) [8]: at least 300
CC(=O)Nc1ccc(-c2ccc(C(=O)NCCc3c(C)[nH]c4ccccc34)cn2)cc1 [Compound 8f, 6-(4-Acetamidophenyl)-N-(2-(2-methyl-1H-indol-3-yl)ethyl)nicotinamide] | >100 µM | 25 | – | –
Cc1cc(C)nc(Nc2ncc(C(=O)NCCc3c(C)[nH]c4ccccc34)cn2)c1 [Compound 20o.HCl, 2-((4,6-Dimethylpyridin-2-yl)amino)-N-(2-(2-methyl-1H-indol-3-yl)ethyl)pyrimidine-5-carboxamide.Hydrochloride] | – | – | – | water pH after dissolving ([10]; 2 mg/mL in neat water, starting pH 6.4): 3.5; water solubility ([10]; thermodynamic solubility in water, HCl salts): 1000 µg/mL; solubility ([10]; water, thermodynamic from solid): 1100 to 1200 µg/mL

The next lines start with results.

Solubility in SGF [1] | Aqueous Solubility [2] [µM] | S.I (IP/EP2) [6] | SMILES | other results
– | – | >500 | Cc1cc(C)nc(Nc2ncc(C(=O)NCCc3c(C)[nH]c4c(F)cc(F)cc34)cn2)c1 [Compound 24c, N-(2-(5,7-Difluoro-2-methyl-1H-indol-3-yl)ethyl)-2-((4,6-dimethylpyridin-2-yl)amino)pyrimidine-5-carboxamide] | Kb [4]: 20 nM; solubility [5]: > 100 µM
10 µM (≈ 4.15 µg/mL) | 10 | – | COc1cc(OC)cc(-c2ccc(C(=O)NCCc3c(C)[nH]c4ccccc34)nc2)c1 [Compound 11b, 5-(3,5-Dimethoxyphenyl)-N-(2-(2-methyl-1H-indol-3-yl)ethyl)picolinamide] | fold less potent than equivalent derivative [4]: 11 fold
– | 17 | >1200 | Cc1[nH]c2ccccc2c1CCNC(=O)c1cnc(Nc2cccnc2)nc1 [Compound 20q, N-(2-(2-Methyl-1H-indol-3-yl)ethyl)-2-(pyridin-3-ylamino)pyrimidine-5-carboxamide] | Kb [4]: 8.3 nM; S.I (EP4/EP2) [7]: >1200
10^d μM | 10 | – | COc1ccccc1-c1ccc(C(=O)NCCc2c(C)[nH]c3ccccc23)cc1F [Compound 14b, 2-Fluoro-2′-methoxy-N-(2-(2-methyl-1H-indol-3-yl)ethyl)-[1,1′-biphenyl]-4-carboxamide] | –
– | 5 | 770 | Cc1cc(C)nc(Nc2ncc(C(=O)NCCc3c(C)[nH]c4ccc(F)cc34)cn2)c1 [Compound 24a, 2-((4,6-Dimethylpyridin-2-yl)amino)-N-(2-(5-fluoro-2-methyl-1H-indol-3-yl)ethyl)pyrimidine-5-carboxamide] | –
– | 27 | >900 | Cc1[nH]c2ccccc2c1CCNC(=O)c1cnc(Nc2ccccn2)nc1 [Compound 20a, N-(2-(2-Methyl-1H-indol-3-yl)ethyl)-2-(pyridin-2-ylamino)pyrimidine-5-carboxamide] | S.I. (DP1/EP2) [8]: >900
– | 41 | – | Cc1[nH]c2ccccc2c1CCNC(=O)c1cnc(Nc2cccc(F)n2)nc1 [Compound 20f, 2-((6-Fluoropyridin-2-yl)amino)-N-(2-(2-methyl-1H-indol-3-yl)ethyl)pyrimidine-5-carboxamide] | fold higher half-life in liver microsomes ([9]; 24i vs 20o, 20c vs 20b, 20f vs 20e): 8 fold
– | 71 | 730 | COc1ccccc1-c1ncc(C(=O)NCCc2c(C)[nH]c3ccccc23)cn1 [Compound 14a, 2-(2-Methoxyphenyl)-N-(2-(2-methyl-1H-indol-3-yl)ethyl)pyrimidine-5-carboxamide] | half-life [3]: < 1 h; solubility [5]: > 100 µM; S.I (EP4/EP2) [7]: 517
– | 25 | – | Cc1ccnc(Nc2ncc(C(=O)NCCc3c(C)[nH]c4ccccc34)cn2)c1 [Compound 20b, N-(2-(2-Methyl-1H-indol-3-yl)ethyl)-2-((4-methylpyridin-2-yl)amino)pyramidine-5-carboxamide] | MLM T½ ([9]; 1 μM compound, 0.125 mg/mL liver microsomes, NADPH): 8 min
10 µM (≈ 4.12 µg/mL) | 10 | – | CC(=O)Nc1ccc(-c2ccc(C(=O)NCCc3c(C)[nH]c4ccccc34)nc2)cc1 [Compound 11c, 5-(4-Acetamidophenyl)-N-(2-(2-methyl-1H-indol-3-yl)ethyl)picolinamide] | –
14 µM (≈ 5.4 µg/mL) | 14 | – | COc1cccc(-c2ccc(C(=O)NCCc3c(C)[nH]c4ccccc34)nc2)c1 [Compound 11a, 5-(3-Methoxyphenyl)-N-(2-(2-methyl-1H-indol-3-yl)ethyl)picolinamide] | fold less potent than equivalent derivative [4]: 4 fold
– | 25 | >1500 | Cc1cccc(Nc2ncc(C(=O)NCCc3c(C)[nH]c4ccccc34)cn2)n1 [Compound 20e, N-(2-(2-Methyl-1H-indol-3-yl)ethyl)-2-((6-methylpyridin-2-yl)amino)pyrimidine-5-carboxamide] | S.I (EP4/EP2) [7]: >1500
– | 20 | >350 | Cc1cc(C)nc(Nc2ncc(C(=O)NCCc3c(C)[nH]c4ccc(Cl)cc34)cn2)c1 [Compound 24b, N-(2-(5-Chloro-2-methyl-1H-indol-3-yl)ethyl)-2-((4,6-dimethylpyridin-2-yl)amino)pyrimidine-5-carboxamide] | Kb [4]: 28.3 nM; S.I (EP4/EP2) [7]: >350
– | 45 | – | Cc1cc(C)nc(Nc2ncc(C(=O)NCCc3c(C(F)(F)F)[nH]c4ccccc34)cn2)c1 [Compound 24f, 2-((4,6-Dimethylpyridin-2-yl)amino)-N-(2-(2-(trifluoromethyl)-1H-indol-3-yl)ethyl)pyrimidine-5-carboxamide] | Kb [4]: 66 nM; fold reduced EP2 potency in comparison to 20o ([4]; comparator 20o): 8 fold
– | 15 | >1280 | COc1cccc(Nc2ncc(C(=O)NCCc3c(C)[nH]c4ccccc34)cn2)n1 [Compound 20h, 2-((6-Methoxypyridin-2-yl)amino)-N-(2-(2-methyl-1H-indol-3-yl)ethyl)pyrimidine-5-carboxamide] | Kb [4]: 7.8 nM; S.I. (DP1/EP2) [8]: >1280
– | 100 | – | Cc1ccc(Nc2ncc(C(=O)NCCc3c(C)[nH]c4ccccc34)cn2)c(C)n1 [Compound 20r, 2-((2,6-Dimethylpyridin-3-yl)amino)-N-(2-(2-methyl-1H-indol-3-yl)ethyl)pyrimidine-5-carboxamide] | fold reduced EP2 potency ([4]; 20f vs. 20c, 20n vs. 20e, comparator of 20g and 20r not stated): 10 fold; Kb [4]: 88.1 nM
